According to paper PMC3056285 (Bioorganic & medicinal chemistry, 2011):
One block for each compound: values may come before it.

What was measured:
[1] = Biodistribution of [^11C]MP-10 in rats; assay type: in vivo, Sprague-Dawley rats; conditions: male rats, tail vein injection
PDE10A = assay: MicroPET imaging studies in rhesus monkeys; assay type: in vivo; conditions: male rhesus monkeys
[2] = In vivo metabolite analysis in rat plasma; design: species or system Sprague-Dawley rats; conditions: HPLC radioactivity
[3] = In vivo metabolite analysis in rat brain; design: species or system Sprague-Dawley rats; conditions: HPLC radioactivity
[4] = 2 min post injection of [^11C]MP-10
[5] = 20 min post injection of [^11C]MP-10
[6] = 40 min post injection of [^11C]MP-10
[7] = 60 min post injection of [^11C]MP-10

Biodistribution Blood ([1]; 5 min): 0.123 ± 0.033 ID%/gram
Biodistribution Cerebellum ([1]; 5 min): 0.133 ± 0.023 ID%/gram
Biodistribution Cortex ([1]; 5 min): 0.133 ± 0.025 ID%/gram
Biodistribution Fat ([1]; 5 min): 0.124 ± 0.059 ID%/gram
Biodistribution Heart ([1]; 5 min): 0.264 ± 0.080 ID%/gram
Biodistribution Hippocampus ([1]; 5 min): 0.169 ± 0.049 ID%/gram
Biodistribution Liver ([1]; 5 min): 2.766 ± 0.350 ID%/gram
Biodistribution Lung ([1]; 5 min): 0.317 ± 0.037 ID%/gram
Biodistribution Muscle ([1]; 5 min): 0.093 ± 0.021 ID%/gram
Biodistribution Striatum ([1]; 5 min): 0.300 ± 0.094 ID%/gram
Biodistribution Testes ([1]; 5 min): 0.160 ± 0.048 ID%/gram
Biodistribution Total brain ([1]; 5 min): 0.162 ± 0.025 ID%/gram
Biodistribution Blood ([1]; 30 min): 0.065 ± 0.016 ID%/gram
Biodistribution Cerebellum ([1]; 30 min): 0.036 ± 0.003 ID%/gram
Biodistribution Cortex ([1]; 30 min): 0.044 ± 0.009 ID%/gram
Biodistribution Fat ([1]; 30 min): 0.075 ± 0.020 ID%/gram
Biodistribution Heart ([1]; 30 min): 0.102 ± 0.041 ID%/gram
Biodistribution Hippocampus ([1]; 30 min): 0.050 ± 0.010 ID%/gram
Biodistribution Kidney ([1]; 30 min): 0.366 ± 0.075 ID%/gram
Biodistribution Liver ([1]; 30 min): 3.395 ± 0.448 ID%/gram
Biodistribution Lung ([1]; 30 min): 0.155 ± 0.053 ID%/gram
Biodistribution Muscle ([1]; 30 min): 0.059 ± 0.010 ID%/gram
Biodistribution Striatum ([1]; 30 min): 0.236 ± 0.035 ID%/gram
Biodistribution Testes ([1]; 30 min): 0.098 ± 0.006 ID%/gram
Biodistribution Total brain ([1]; 30 min): 0.066 ± 0.008 ID%/gram
Biodistribution Blood ([1]; 60 min): 0.047 ± 0.012 ID%/gram
Biodistribution Cerebellum ([1]; 60 min): 0.035 ± 0.003 ID%/gram
Biodistribution Cortex ([1]; 60 min): 0.044 ± 0.014 ID%/gram
Biodistribution Fat ([1]; 60 min): 0.100 ± 0.013 ID%/gram
Biodistribution Heart ([1]; 60 min): 0.068 ± 0.023 ID%/gram
Biodistribution Hippocampus ([1]; 60 min): 0.051 ± 0.009 ID%/gram
Biodistribution Kidney ([1]; 60 min): 0.314 ± 0.060 ID%/gram
Biodistribution Liver ([1]; 60 min): 3.364 ± 0.613 ID%/gram
Biodistribution Lung ([1]; 60 min): 0.090 ± 0.012 ID%/gram
Biodistribution Muscle ([1]; 60 min): 0.039 ± 0.011 ID%/gram
Biodistribution Striatum ([1]; 60 min): 0.164 ± 0.036 ID%/gram
Biodistribution Testes ([1]; 60 min): 0.068 ± 0.021 ID%/gram
Biodistribution Total brain ([1]; 60 min): 0.056 ± 0.006 ID%/gram
SMILES: [11CH3]n1cc(-c2ccncc2)c(-c2ccc(OCc3ccc4ccccc4n3)cc2)n1 [[^11C]MP-10, 2-((4-(1-[^11C]methyl-4-(pyridin-4-yl)-1H-pyrazol-3-yl)phenoxy)methyl)-quinoline]
blood brain barrier penetration (PDE10A): can readily penetrate the blood brain barrier

% Peak #1, Plasma [2, 4]: 1.23%
% Peak #1, Plasma [2, 5]: 19.13%
% Peak #1, Plasma [2, 6]: 35.19%
% Peak #1, Plasma [2, 7]: 40.72%
% Peak #1, Brain Tissue [3, 4]: 1.03%
% Peak #1, Brain Tissue [3, 5]: 3.45%
% Peak #1, Brain Tissue [3, 6]: 11.47%
% Peak #1, Brain Tissue [3, 7]: 15.87%
SMILES: [11CH3]n1cc(-c2ccncc2)c(-c2ccc(O)cc2)n1 [metabolite #1, 4-(1-[^11C]methyl-4-(pyridin-4-yl)-1H-pyrazol-3-yl)phenol]
